Measured values: US20250205198A1, “METHODS FOR DELIVERY OF PSYCHEDELIC MEDICATIONS BY INHALATION AND SYSTEMS FOR PERFORMING THE METHODS” (Cybin IRL Limited, priority 2022, published 2025)

How the values were obtained:
[1] = Plasma pharmacokinetics after 20-minute snout-only inhalation (nebulized aerosol) co-administration of DMT and DMT-d10 to male rats (Group 6); details: for mean residence time (MRT) after inhalation compared to IV administration, fold greater: inhalation vs IV; for time of highest plasma concentration (first time point taken): after start of inhalation; for AUC0-1/dose: dose normalized
[2] = Plasma pharmacokinetics after intravenous (bolus) co-administration of DMT and DMT-d10 to male rats (Group 4); details: for AUC0-1/dose: dose normalized; for t1/2: calculated 0.083 to 1.0 hr
[3] = Plasma pharmacokinetics after oral gavage co-administration of DMT and DMT-d10 to male rats (Group 2); details: for bioavailability / AUC(0-t): male, Sprague Dawley, rat, po, 10 mg/kg; for bioavailability / AUC(0-t) / AUC0-1/dose: plasma; for time of peak plasma concentration postdose: oral administration 10 mg/kg; for AUC0-1/dose: dose normalized
[4] = Brain pharmacokinetics and brain to plasma ratio after intravenous (bolus) co-administration of DMT and DMT-d10 to male rats (Group 4); details: for Kp: male, Sprague Dawley, rat, iv, 1 mg/kg
[5] = plasma, inhalation 14.3 mg/kg DMT, 15.5 mg/kg DMT-d10
[6] = plasma, male rats, inhalation 14.3 mg/kg DMT + 15.5 mg/kg DMT-d10
[7] = summary table, plasma, inhalation 14.3 mg/kg DMT, 15.5 mg/kg DMT-d10
[8] = male, Sprague Dawley, rat, plasma, iv, 1 mg/kg
[9] = plasma, male rats, IV bolus 1 mg/kg, co-administered
[10] = summary table, plasma, intravenous 1 mg/kg
[11] = AUC0-t, male rats, oral gavage (OG) 10 mg/kg, co-administered
[12] = brain, male rats, IV bolus 1 mg/kg, co-administered
[13] = male, Sprague Dawley, rat, plasma, inhaled or intranasal, 15.5 mg/kg

| Structure (SMILES) | mean residence time (MRT) after inhalation compared to IV administration, fold greater [1] | time of highest plasma concentration (first time point taken) ([1]; inhalation) | AUC0-1/dose [1, 5] | AUC0-1 [1, 7] | time of highest plasma concentration (first time point taken) ([2]; IV bolus 1 mg/kg) | MRT last [2, 8] | AUC0-1/dose ([2]; plasma, intravenous 1 mg/kg) | AUC0-1 [2, 9] | AUC(0-t) [2, 9] | AUC0-1 [2, 10] | t1/2 [2, 10] | bioavailability [3] | AUC(0-t) [3, 11] | time of peak plasma concentration postdose [3] | AUC0-1/dose ([3]; oral 10 mg/kg) | AUC0-t (brain) [4, 12] | Cmax (brain) [4, 12] | Kp ([4]; brain) | further results |
| --- | --- | --- | --- | --- | --- | --- | --- | --- | --- | --- | --- | --- | --- | --- | --- | --- | --- | --- | --- |
| CN(C)CCc1c[nH]c2ccccc12 [DMT, N,N-dimethyltryptamine, reference compound] | approximately 5 × | 0.333 h | 18.2 | 260 ng·h/mL | 0.083 h | 12.7 min | 112 | 112 ng·h/mL | 112 ng·h/mL | 112 ng·h/mL | 10.3 min | 1.36% | 109 ng·h/mL | 1 h | 1.52 | 1060 ng·h/g | 3430 ng/g | 9.5 | AUC(0-t) [1, 6]: 308 ng·h/mL; half-life [2, 8]: 10.3 min; AUC0-inf [2, 9]: 114 ng·h/mL; AUC(0-t) ([3]; AUC0-1, plasma, male rats, oral gavage (OG) 10 mg/kg, co-administered): 15.2 ng·h/mL; AUC(0-t) ([3]; AUC0-1, summary table, oral 10 mg/kg): 15.2 ng·h/mL; AUC0-inf (brain) [4, 12]: 1070 ng·h/g; t1/2 (brain) ([4]; brain, male rats, IV bolus 1 mg/kg, calculated 0.25 to 1 hr): 9.3 min |
| [2H]C([2H])([2H])N(C([2H])([2H])[2H])C([2H])([2H])C([2H])([2H])c1c[nH]c2ccccc12 [DMT-d10, 2-(1H-indol-3-yl)-N,N-bis(methyl-d3)ethan-1-amine-1,1,2,2-d4] | approximately 5 × | 0.333 h | 17.0 | 264 ng·h/mL | 0.083 h | 19.6 min | 75.4 | 75.4 ng·h/mL | 75.4 ng·h/mL | 75.4 ng·h/mL | 26.8 min | 1.16% | 80.2 ng·h/mL | 1 h | 0.878 | 931 ng·h/g | 1490 ng/g | 12.3 | improvement of duration of exposure (MRTlast) by deuteration ([1]; DMT-d10 vs. DMT, after inhalation): 24.6%; increase of inhalation bioavailability by deuteration ([1]; DMT-d10 vs. DMT, inhalation): approximately 40%; inhalation bioavailability, fold greater than oral bioavailability ([1]; inhalation vs oral): approximately 20 ×; AUC0-inf [1, 13]: 384 ng·h/mL; half-life [1, 13]: 325 min; AUC0-1 [1, 6]: 264 ng·h/mL; t1/2 ([1]; summary table, plasma, inhalation 15.5 mg/kg DMT-d10, calculated 0.333 to 3.333 hr): 325 min; improvement of duration of exposure (MRTlast) by deuteration ([2]; DMT-d10 vs. DMT, after IV): 54.5%; t1/2 ([2]; plasma, male rats, IV bolus 1 mg/kg): 26.8 min; improvement of brain to plasma (B/P) ratio by deuteration ([4]; DMT-d10 vs. DMT, IV 1 mg/kg): approximately 30% |
